From patent US9949956B2, “Compounds, compositions, and methods for preventing metastasis of cancer cells” (Aerpio Therapeutics, Inc., priority 2009, dated 2018)
“And” between values parts separate entries of the source, which are not always exact repeats. Equal values may be shown once.

Tests used:
[1] = tested on: MiaPaCa-2-RFP tumor fragments; experiment: In vivo pancreatic cancer study, surgical orthotopic implantation of MiaPaCa-2-RFP tumor fragments; set-up: species or system NCr nu/nu males; details: FIG. 9
Description: The effectiveness of the disclosed compounds as a treatment for pancreatic cancer was investigated. 60 NCr nu/nu males, 5-6 weeks old were transplanted by surgical orthotopic implantation (SOI) using MiaPaCa-2-RFP tumor fragments harvested from stock animals. The animals were anesthetized with isoflurane and the surgical area was sterilized using iodine and alcohol. An incision approximately 1.5 cm long was made in the left upper abdomen of the nude mouse using a pair of surgical scissors. […] The abdomen was closed with 6-0 surgical sutures (silk). All procedures of the operation described above were performed with a 7× magnification microscope (Olympus) under HEPA filtered laminar flow hoods. Dosing of the animals began three days following tumor implantation. The high dose of gemcitabine was 150 mg/kg. The low dose of gemcitabine was 100 mg/kg. […] was given at 20 mg/kg. […] The animals were divided into the following groups often animals each as depicted in Table XXII.

[2] = tested on: H460-GFP human tumor cells; experiment: In vivo anti-metastasis study, surgical orthotopic implantation of H460-GFP tumor fragments on the lung; set-up: species or system NCr nu/nu male mice; details: for Evidence of Metastasis (individual mouse): mice No. 1-10; for # mice with metastases: ten mice per group
Protocol: A total of 50 NCr nu/nu male mice aged 5-6 weeks were selected for the following in vivo test. H460-GFP human tumor cells were grown subcutaneously in NCr nu/nu male mice after which the resulting tumors were harvested. Subsequent to harvesting, recipient NCr nu/nu mice of this study had tumor fragments transplanted by surgical orthotopic implantation (SOI). Each animal was anesthetized is isofurane and the surgical area was sterilized with iodine and alcohol. A transverse incision approximately 1.5 cm long was made in the left chest wall of the mice using a pair of surgical scissors. An intercostal incision was made between the third and the fourth costa and the left lung was exposed. Two pieces of H460-GFP tumor fragments were transplanted to the surface of the lung with 8-0 surgical nylon suture. […]. The lung was re-inflated by the intrathoracic puncture using 3 cc syringe with 25 G 11⁄2 needle to draw out the remaining air in the chest cavity. The chest wall was closed with 6-0 surgical silk sutures. All procedures of the operation described above were performed with a 7× magnification microscope (Olympus) under HEPA filtered laminar flow hoods. The treated mice were divided into five groups containing ten mice each. Group I (Control) received 100 μL the drug vehicle twice daily for 15 days. Group II received 15 mg/kg of taxol intravenously at days 6, 9, 12, and 15. […] Group IV received 10 mg/kg of taxol intravenously at days 6, 9, 12, and 15 and 15 mg/kg of the Test Compound twice per day from day 3 to day 15. Group V received 15 mg/kg of the Test Compound twice per day from day 3 to day 15. All animals were sacrificed on day 28. Each animal was checked twice a week for primary tumor and metastasis via GFP open imaging of the mediastinal lymph nodes. No metastasis was found on any other organs. Six mice from the control group died before the end of the study, but were evaluated for tumor and/or cellular metastasis.

[3] = tested on: B16 melanoma cells; experiment: In vivo anticancer study, B16 melanoma; set-up: species or system C57BL/6 mice
Protocol: The effectiveness of the disclosed compounds as a treatment for melanoma was studied. C57BL/6 mice (6-8 weeks-old, female, Taconic Farm) were inoculated with B16 melanoma cells (5×10^4 cells/site, s.c.). […] Tumor volumes were recorded. […] Tumor volumes were recorded.

[4] = tested on: Renca renal cancer cells; experiment: In vivo anticancer study, renal cell carcinoma (Renca); set-up: species or system Balb/c mice; details: FIG. 1 and FIG. 2
Protocol: The effectiveness of the disclosed compounds as a treatment against renal cell carcinoma was studied. Balb/c mice (6-8 weeks-old, female, Taconic Farm) were inoculated with Renca renal cancer cells (5×10^5 cells/site). […] Tumor volumes were recorded.

COC(=O)N[C@@H](Cc1ccccc1)C(=O)N[C@@H](Cc1ccc(NS(=O)(=O)O)cc1)c1csc(-c2cccs2)n1 [D91, 4-{(S)-2-[(S)-2-(Methoxycarbonylamino)-3-phenylpropanamido]-2-[2-(thiophen-2-yl)thiazol-4-yl]ethyl}phenylsulfamic acid]
pancreatic tumor volume ([1]; D91 20 mg/kg s.c. twice daily alone, day 28): significant reduction in pancreatic tumor volume
tumor volume ([1]; combination of low dose gemcitabine (100 mg/kg i.p.) and 20 mg/kg D91, compared with either alone): greater reduction in tumor volume
Evidence of Metastasis (individual mouse) ([2]; Group V: D91 15 mg/kg twice per day, day 3 to 15, 15 mg/kg): Yes (2×) and No (8×)
# mice with metastases ([2]; Group V: D91 15 mg/kg twice per day, day 3 to 15): 2
B16 melanoma tumor volume ([3]; 40 mg/kg b.i.d. D91 alone versus vehicle control, FIG. 8): effectiveness
tumor volume ([3]; high dose of IL-2 (300,000 IU/mouse, bid, i.p.) in combination with high dose of D91 (40 mg/kg, bid, s.c.), compared to high dose IL-2 alone, FIG. 3): significantly reduced tumor volume as compared to high dose of IL-2
tumor volume ([3]; low dose of IL-2 (100,000 IU/mouse, bid, i.p.) in combination with high dose of D91 (40 mg/kg, bid, s.c.) versus control, FIG. 6): significantly reduced tumor volume versus control
reducing tumor volume, compared with IL-2 ([4]; D91 40 mg/kg bid s.c. versus IL-2 100,000 IU/mouse bid i.p.): as effective as IL-2 in reducing tumor volume
renal tumor growth ([4]; D91 40 mg/kg, bid, s.c. alone): significantly reduced renal tumor growth
tumor volume ([4]; combination of D91 (40 mg/kg, bid, s.c.) and IL-2 (100,000 IU/mouse, bid, i.p.)): further reduced tumor volume

CC(=O)O[C@H]1C(=O)[C@@]2(C)[C@H]([C@H](OC(=O)c3ccccc3)[C@]3(O)C[C@H](OC(=O)[C@H](O)[C@@H](NC(=O)c4ccccc4)c4ccccc4)C(C)=C1C3(C)C)[C@]1(OC(C)=O)CO[C@@H]1C[C@@H]2O [taxol, reference compound]
Evidence of Metastasis (individual mouse) ([2]; Group II: taxol 15 mg/kg i.v. at days 6, 9, 12, 15, GFP open imaging of mediastinal lymph nodes): No (9×) and Yes
# mice with metastases ([2]; Group II: taxol 15 mg/kg i.v. at days 6, 9, 12, 15): 1
